Assay results: patent publication US20240254095A1, “NMDA Receptor Antagonist and Use Thereof” (priority 2021, published 2024)
Entries after “also recorded” stand apart in the source; their conditions may differ. Structures can show the parent of a compound that is named as a salt. Where two headings read alike, the source gives them in different places.

Tests used:
mice = assay: High dose toxicity test (behavior of mice after i.p. administration); assay type: in vivo; parameters: key to Rodent Epileptiform Behavior Scale score (maximum): 0: No abnormal behavior; 1: Unsteady walking/reduced exercise ability/immobility; 2: Generalized clonus/trembling/writhing; 3: The tail is stiff/swinging; 4: Forelimb contractures; 5: Generalized spasms/convulsions; 6: Startle or running convulsive seizures; 7: Generalized tonic-clonic seizures; 8: dead; conditions: for behavior during observation: observed about one hour; for Rodent Epileptiform Behavior Scale score (maximum): scale 0-8
Description: • 1. Experiments were performed in a quiet environment where animals needed to be weighed and acclimatized in the laboratory room for at least 30 min before the experiment. • 2. The compound to be tested was dissolved with 0.9% physiological saline at a concentration of 10 mg/ml. According to the body weight of mice, a corresponding volume of the compound was intraperitoneal injected (i.p.), so as to provide the target dose. • 3. The mice after administration were placed in transparent observation boxes, and the behavioral changes of the mice were recorded by video and observed for about one hour. (Note: During the observation period, if a mouse was lying still on the stomach, the mouse was turned over with your hand to check whether the righting reflex (RR) of the mouse disappeared. If it disappeared, the mouse was in the state of anesthesia, the time of anesthesia in the mouse was recorded). • 4. After one hour of observation, the mice were returned to the feeding cage and the observation boxes were wiped with 75% alcohol so that the information left over from the previous round (e.g. animal stool, urine and other odors) would not affect the next test results. Animals were replaced for the next round to continue the experiment.
Mice died after ketamine administration.
According to Rodent Epileptiform Behavior Scale score, Compound 9 induced epileptiform behavior in mice with a maximum score of 3. […] According to the Rodent Epileptiform Behavior Scale score. Compound 41 and 42 induced epileptiform behavior in mice with a maximum score of 1. […] The epileptiform behavior was scored according to the Rodent Epileptiform Behavior Scale score.

[1] = biological target: T1, human NMDA receptors GluN1 and GluN2A subunits (GluN2A-containing NMDAR) (Homo sapiens, UniProt Q05586+Q12879); assay: cell-based
T1 construct: expressed in transfected cells; host or cells: HEK293 cells, transient liposome transfection of TRE-GluN1-GluN2A, tTA and pCAG-EGFP
T1 sequence (Q12879 23-1464, other chains not shown): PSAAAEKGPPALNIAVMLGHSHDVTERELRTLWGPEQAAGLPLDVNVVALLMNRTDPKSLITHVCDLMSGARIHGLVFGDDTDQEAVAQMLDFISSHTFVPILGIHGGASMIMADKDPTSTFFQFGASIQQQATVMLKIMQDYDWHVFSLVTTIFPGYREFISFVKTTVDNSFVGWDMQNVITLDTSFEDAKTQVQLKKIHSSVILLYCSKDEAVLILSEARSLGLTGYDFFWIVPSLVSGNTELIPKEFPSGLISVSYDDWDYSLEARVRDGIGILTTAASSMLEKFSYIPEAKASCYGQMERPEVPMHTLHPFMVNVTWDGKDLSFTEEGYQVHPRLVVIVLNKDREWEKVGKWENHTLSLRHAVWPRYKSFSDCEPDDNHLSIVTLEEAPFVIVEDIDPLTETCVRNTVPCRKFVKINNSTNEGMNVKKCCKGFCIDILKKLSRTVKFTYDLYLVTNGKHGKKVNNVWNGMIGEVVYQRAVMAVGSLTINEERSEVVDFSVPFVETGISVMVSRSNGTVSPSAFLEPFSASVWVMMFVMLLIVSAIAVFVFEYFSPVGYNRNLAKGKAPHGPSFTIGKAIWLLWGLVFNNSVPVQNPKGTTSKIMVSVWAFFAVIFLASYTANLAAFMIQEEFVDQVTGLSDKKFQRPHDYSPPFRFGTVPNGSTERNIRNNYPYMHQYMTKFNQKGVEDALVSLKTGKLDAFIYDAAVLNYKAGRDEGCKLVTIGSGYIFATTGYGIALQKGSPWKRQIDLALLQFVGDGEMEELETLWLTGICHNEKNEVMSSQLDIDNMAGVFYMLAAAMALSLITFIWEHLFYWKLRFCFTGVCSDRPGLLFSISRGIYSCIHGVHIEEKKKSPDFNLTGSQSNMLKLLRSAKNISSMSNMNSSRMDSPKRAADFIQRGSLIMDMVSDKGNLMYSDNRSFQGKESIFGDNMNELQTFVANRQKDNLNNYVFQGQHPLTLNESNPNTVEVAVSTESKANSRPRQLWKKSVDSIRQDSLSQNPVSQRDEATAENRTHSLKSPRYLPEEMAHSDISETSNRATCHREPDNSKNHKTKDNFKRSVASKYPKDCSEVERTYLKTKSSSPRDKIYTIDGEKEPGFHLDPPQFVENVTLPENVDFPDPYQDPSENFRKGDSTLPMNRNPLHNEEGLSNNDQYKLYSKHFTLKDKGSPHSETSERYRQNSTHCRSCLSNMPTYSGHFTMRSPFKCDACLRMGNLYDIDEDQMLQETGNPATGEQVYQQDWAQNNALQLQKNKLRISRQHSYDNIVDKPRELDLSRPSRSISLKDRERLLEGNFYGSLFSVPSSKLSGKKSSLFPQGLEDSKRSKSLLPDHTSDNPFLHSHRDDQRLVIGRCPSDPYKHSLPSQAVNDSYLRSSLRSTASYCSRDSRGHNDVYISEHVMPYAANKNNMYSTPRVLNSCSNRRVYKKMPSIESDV
Description: On the day before transfection, HEK293 cells were seeded in a 24-well plate with a 10 mm glass sheet, which was coated with polylysine in advance to increase the adhesion capacity of the cells. The plate was added with DMEM medium containing 10% FBS and incubated at 37° C., in 5% CO2 incubator. When the cell fusion reached 60%-70% after 18-24 hours, the plasmid cDNAs containing TRE-GluN1-GluN2A of human GluN1 and GluN2A, tTA, and pCAG-EGFP were transfected into HEK293 by liposome transfection (TRE-GluN1-GluN2A:tTA:pCAG-EGFP is 0.2 μg:0.2 μg:0.02 μg). Before transfection, anew DMEM medium was changed and added with 1 μg/mL Dox (doxycycline) to induce stable expression in the medium, and added with 100 μM D-APV and 10 mM MgCl2 to avoid cell excitatory toxicity caused by NMDAR overexpression. Cells with green fluorescence were selected for electrophysiological recording after transfection for about 24 h.
A glass plate seeded with HEK293 cells was placed in a recording bath and perfused with the extracellular fluid at a rate of 4 mL/min (NaCl 140 mM, KCl 2.8 mM, HEPES 10 mM, CaCl2 1 mM, glycine 0.1 mM, pH 7.2). The channels of the ALA-VC^3 eight-channel pressure perfusion system were filled with extracellular fluid for washing, extracellular fluid containing glutamic acid (100 μM), and extracellular fluid containing glutamic acid and compound to be tested, respectively, with a drop rate of about 1 drop/sec and 10 μL/drop. HEK293 cells with moderate green fluorescence intensity and good adhesion were selected under a fluorescence microscope for recording. The microglass tube of the perfusion system was placed about ten cells away from the cells to be recorded, and the drug was sprayed to the cell surface under the pressure of air (0.02 MPa). The glass electrode was prepared by drawing with a microelectrode drawing instrument with a resistance of 4-6 MΩ and filled with electrode liquid (CsCl 125 mM, HEPES 10 mM, EGTA 11 mM). The microelectrode manipulator was used to slowly push the glass electrode towards the cells. The electrode was attached to the cell membranes and applied with negative pressure, so that a high-resistance seal of more than 1 GΩ was formed between the electrode tip and the cell membrane, and then negative pressure was given to suck through the cell membrane to form a whole-cell recording mode. After the formation of whole-cell recording mode, the cell membrane potential was clamped at −70 mV. The extracellular fluid containing 100 μM glutamic acid, the extracellular fluid containing 100 μM glutamic acid and the compound to be tested, and the extracellular fluid were sprayed to the cell membrane surface sequentially through the perfusion system for 10 s, 20 s, and 10 s to record the NMDA receptor-mediated current and evaluate the inhibitory effect of the compound on GluN2A-containing NMDAR. The experimental process was controlled by pCLAMP 10.6, and the Digidata 1440A digital-to-analog converter was used to complete the generation of stimulus signal and the acquisition of feedback signal.
The ordinate in the figure is the normalized current ratio, which represents the ratio of the current mediated by NMDAR after administration of ketamine and the compound at a concentration of 10 μM to the current mediated by NMDAR before administration. […] Ketamine was used as a positive control.
The inhibitory percentages of the compound according to the present disclosure on NMDAR-mediated current=[…]/NMDAR mediated-current before administration*100%.

[2] = medium dose 100 mg/kg body weight, hydrochloride, 100 mg/kg
[3] = NMDAR-mediated current, HEK293 cells expressing human GluN1/GluN2A, 100 μM glutamic acid, clamped at −70 mV, compound 10 μM, read-out: current inhibitory percentages
[4] = high dose 150 mg/kg bw, formate, 150 mg/kg
[5] = medium dose 100 mg/kg body weight, formate, 100 mg/kg
[6] = medium dose 100 mg/kg body weight

Structure (SMILES)	inhibition at 10 µM [1, 3]	further results
Clc1cccc([C@]23CCCC[C@H]2OCCN3)c1 [Compound 41, (4aR,8aR)-4a-(3-chlorophenyl)octahydro-2H-benzo[b][1,4]oxazine hydrochloride]	92.9%	behavior during observation (mice; [2]): slightly shaky walking; also recorded: Slight shaking
Clc1ccccc1[C@]12CCCC[C@H]1OCCN2 [Compound 43, (4aR,8aR)-4a-(2-chlorophenyl)octahydro-2H-benzo[b][1,4]oxazine hydrochloride]		behavior during observation (mice; [2]): no obvious abnormalities; also recorded: No abnormal
Clc1cccc([C@@]23CCCC[C@@H]2OCCN3)c1 [Compound 42, (4aS,8aS)-4a-(3-chlorophenyl)octahydro-2H-benzo[b][1,4]oxazine hydrochloride]	105%	behavior during observation (mice; [2]): slightly shaky walking; also recorded: Slight shaking
Clc1ccccc1C12CCCCC1OCCN2 (racemic) [Compound 11, 4a-(2-chlorophenyl)octahydro-2H-benzo[b][1,4]oxazine formate]	85%	behavior during observation (mice; [4]): the activity reduction in mice lasted for half an hour before returning to normal; behavior during observation (mice; [5]): decreased activity; also recorded: Mild epilepsy; Rodent Epileptiform Behavior Scale score (maximum) (mice; [6]): 1
Clc1ccccc1[C@@]12CCCC[C@@H]1OCCN2 [Compound 44, (4aS,8aS)-4a-(2-chlorophenyl)octahydro-2H-benzo[b][1,4]oxazine hydrochloride]		behavior during observation (mice; [2]): no obvious abnormalities; also recorded: No abnormal
CNC1(c2ccccc2Cl)CCCCC1=O (stereo not drawn) [Ketamine, reference compound]		behavior during observation (mice; high dose 150 mg/kg bw, 150 mg/kg): dead; behavior during observation (mice; high dose 150 mg/kg bw, listed as ketamine, 150 mg/kg): Mice died; inhibition at 10 µM ([1]; HEK293, read-out: current inhibitory percentages): 102%
CC(C)(C)c1ccc(C23CCCCC2OCCN3)cc1 (stereo not drawn) [Compound 25, 4a-(4-(tertbutyl)phenyl)octahydro-2H-benzo[b][1,4]oxazine hydrochloride]	11.2%	
Fc1ccc(Cl)c(C23CCCCC2OCCN3)c1 (stereo not drawn) [Compound 32, 4a-(2-chloro-5-fluorophenyl)octahydro-2H-benzo[b][1,4]oxazine hydrochloride]	102%	
Clc1cccc(C23CCCCC2OCCN3)c1 (racemic) [Compound 9, 4a-(3-chlorophenyl)octahydro-2H-benzo[b][1,4]oxazine formate]	88.8%	behavior during observation (mice; [4]): the state of anesthesia of mice returned to normal after half an hour; also recorded: the state of anesthesia lasted for half an hour; behavior during observation (mice; [5]): intermittent shaky waking, lying still on the stomach, and tail stiffness (seizure for about 10 seconds); also recorded: Moderate epilepsy; Rodent Epileptiform Behavior Scale score (maximum) (mice; [6]): 3
FC(F)(F)Oc1cccc(C23CCCCC2OCCN3)c1 (stereo not drawn) [Compound 22, 4a-(3-(trifluoromethoxy)phenyl)octahydro-2H-benzo[b][1,4]oxazine hydrochloride]	45.8%	
Fc1ccc(C23CCCCC2OCCN3)cc1 (stereo not drawn) [Compound 4, 4a-(4-fluorophenyl)octahydro-2H-benzo[b][1,4]oxazine formate]	83.7%	
Cc1ccc(C23CCCCC2OCCN3)cc1 (stereo not drawn) [Compound 14, 4a-(4-methylphenyl)octahydro-2H-benzo[b][1,4]oxazine formate]	45.2%	
CN1CCOC2CCCCC21c1ccccc1 (stereo not drawn) [Compound 19, 4-methyl-4a-phenyloctahydro-2H-benzo[b][1,4]oxazine hydrochloride]	17.8%	
CC1CCC2OCCNC2(c2ccccc2)C1 (stereo not drawn) [Compound 7, 6-methyl-4a-phenyloctahydro-2H-benzo[b][1,4]oxazine formate]	86.4%	
Fc1cccc(Cl)c1C12CCCCC1OCCN2 (stereo not drawn) [Compound 36, 4a-(2-chloro-6-fluorophenyl)octahydro-2H-benzo[b][1,4]oxazine hydrochloride]	42.5%	
COc1ccccc1C12CCCCC1OCCN2 (stereo not drawn) [Compound 2, 4a-(2-methoxyphenyl)octahydro-2H-benzo[b][1,4]oxazine hydrochloride]	56%	
Cc1cccc(C23CCCCC2OCCN3)c1 (stereo not drawn) [Compound 10, 4a-(3-methylphenyl)octahydro-2H-benzo[b][1,4]oxazine formate]	98.3%	
